Measurements reported in DBAASP.
Converted amounts (≈) assume the structure as drawn.

How the values were obtained:
Test in all cases: ≥ marks a high value that may be exact or a test limit, other limits are often not marked, values filed in µg/mL are converted to µM
[1] = system: Pseudomonas aeruginosa M917
[2] = system: Pseudomonas aeruginosa PAO1
[3] = system: Stenotrophomonas maltophilia
[4] = system: Ralstonia pickettii
[5] = system: Salmonella enterica serovar Typhimurium
[6] = system: Candida albicans
[7] = system: Escherichia coli UB1005
[8] = system: Achromobacter xylosoxidans
[9] = system: Pseudomonas aeruginosa M1426
[10] = system: Pseudomonas aeruginosa M1251
[11] = system: Pseudomonas aeruginosa R70
[12] = system: Pseudomonas aeruginosa M76
[13] = system: Pseudomonas fluorescens
[14] = system: Staphylococcus aureus
[15] = system: Pseudomonas aeruginosa ATCC 27853
[16] = system: Yersinia enterocolitica
[17] = system: Staphylococcus aureus ATCC 43300
[18] = system: Escherichia coli
[19] = system: Salmonella enterica subsp. enterica serovar Enteritidis
[20] = system: Escherichia coli ATCC 25922
[21] = system: Salmonella sp.
[22] = system: Staphylococcus aureus ATCC 29213
[23] = system: Pseudomonas aeruginosa Z61
[24] = system: Pseudomonas aeruginosa H744
[25] = system: Pseudomonas aeruginosa K799
[26] = system: Burkholderia cepacia ATCC 25416
[27] = system: Salmonella enterica subsp. enterica serovar Typhimurium ATCC 14028s
[28] = system: Pseudomonas aeruginosa H547
[29] = system: Bacillus subtilis ATCC 23857
[30] = system: Escherichia coli 780
[31] = system: Staphylococcus epidermidis ATCC 12228
[32] = system: Escherichia coli 804
[33] = system: Acinetobacter baumannii 97830
[34] = system: Pseudomonas aeruginosa ATCC 9027
[35] = system: Pseudomonas aeruginosa 50
[36] = system: Staphylococcus aureus 113
[37] = system: Pseudomonas aeruginosa 73
[38] = system: Staphylococcus aureus 75
[39] = system: Acinetobacter baumannii ATCC 19606
[40] = system: Klebsiella pneumoniae ATCC 700603
[41] = system: Acinetobacter baumannii 9931
[42] = system: Bifidobacterium longum subsp. infantis
[43] = system: Fusarium graminearum
[44] = system: Pseudomonas aeruginosa H374

## CC(C)C[C@H](NC(=O)[C@H](C)NC(=O)[C@H](CCCCN)NC(=O)[C@H](CCCCN)NC(=O)[C@H](C)NC(=O)[C@H](CC(C)C)NC(=O)[C@H](CCCCN)NC(=O)[C@H](CCCCN)NC(=O)[C@H](CC(C)C)NC(=O)[C@H](CCCCN)NC(=O)[C@H](CCCCN)NC(=O)[C@H](CC(C)C)NC(=O)[C@H](CC(C)C)NC(=O)[C@H](CCCCN)NC(=O)[C@H](CCCCN)NC(=O)[C@H](CC(C)C)NC(=O)[C@H](C)NC(=O)[C@H](CCCCN)NC(=O)[C@H](CC(C)C)NC(=O)[C@H](C)NC(=O)[C@H](CC(C)C)NC(=O)[C@H](C)NC(=O)[C@@H](N)Cc1ccccc1)C(N)=O [FALALKALKKLLKKLKKLAKKAL]
[1]
  MIC: ≥ 49.6 µM
[2]
  MIC: 3.1 µM (≈ 8 µg/mL)
[3]
  MIC: 1.55 µM (≈ 4 µg/mL)
[4]
  MIC: 1.55 µM (≈ 4 µg/mL)
[5]
  MIC: 3.1 µM (≈ 8 µg/mL)
[6]
  MIC: 24.8 µM (≈ 64 µg/mL)
[7]
  MIC: 1.55 µM (≈ 4 µg/mL)
[8]
  MIC: 12.4 µM (≈ 32 µg/mL)
[9]
  MIC: 6.2 µM (≈ 16 µg/mL)
[10]
  MIC: 6.2 µM (≈ 16 µg/mL)
[11]
  MIC: 6.2 µM (≈ 16 µg/mL)
[12]
  MIC: 12.4 µM (≈ 32 µg/mL)
[13]
  MIC: 3.1 µM (≈ 8 µg/mL)
[14]
  MIC: 3.1 µM (≈ 8 µg/mL)

## CC[C@H](C)[C@H](NC(=O)[C@H](CCCCN)NC(=O)[C@@H](NC(=O)[C@H](Cc1c[nH]c2ccccc12)NC(=O)[C@H](Cc1ccccc1)NC(=O)[C@H](CCC(N)=O)NC(=O)[C@H](CC(N)=O)NC(=O)[C@H](CCCN=C(N)N)NC(=O)[C@H](CCCN=C(N)N)NC(=O)[C@H](CCSC)NC(=O)[C@H](CCCCN)NC(=O)[C@H](Cc1c[nH]c2ccccc12)NC(=O)[C@H](CCCCN)NC(=O)[C@@H](N)CCCCN)[C@@H](C)CC)C(=O)N[C@@H](CCC(N)=O)C(=O)N[C@@H](CCCN=C(N)N)C(N)=O [KKWKMRRNQFWIKIQR]
[15]
  MIC: > 50 µM
[16]
  MIC: ≥ 50 µM
[17]
  MIC: > 50 µM
[18]
  MIC: 25 µM (≈ 56.1 µg/mL)
[19]
  MIC: 25 µM (≈ 56.1 µg/mL)
[20]
  MIC: > 50 µM
[21]
  MIC: 25 µM (≈ 56.1 µg/mL)
[22]
  MIC: > 50 µM

## CC[C@H](C)[C@H](NC(=O)CNC(=O)[C@@H](NC(=O)[C@H](CCCCN)NC(=O)[C@H](CCCCN)NC(=O)[C@H](Cc1ccccc1)NC(=O)[C@H](CCCCN)NC(=O)[C@H](Cc1c[nH]c2ccccc12)NC(=O)[C@@H](N)CCCCN)[C@@H](C)CC)C(=O)NCC(=O)N[C@@H](C)C(=O)N[C@H](C(=O)N[C@@H](CC(C)C)C(=O)N[C@@H](CCCCN)C(=O)N[C@H](C(=O)N[C@@H](CC(C)C)C(=O)N[C@H](C(=O)N[C@H](C(=O)NCC(=O)N[C@@H](CC(C)C)C(=O)N1CCC[C@H]1C(=O)N[C@@H](C)C(=O)N[C@@H](CC(C)C)C(=O)N[C@@H](CCCCN)C(=O)N[C@@H](CC(C)C)C(=O)N[C@H](C(=O)N[C@@H](CC(C)C)C(=O)N[C@@H](CCCCN)C(=O)O)[C@@H](C)O)[C@@H](C)O)[C@@H](C)O)C(C)C)C(C)C [KWKFKKIGIGAVLKVLTTGLPALKLTLK]
[23]
  MIC: 1.63 µM (≈ 5 µg/mL)
[24]
  MIC: 0.326 µM (≈ 1 µg/mL)
[25]
  MIC: 1.96 µM (≈ 6 µg/mL)
[7]
  MIC: 0.652 µM (≈ 2 µg/mL)
[26]
  MIC: 20.9 µM (≈ 64 µg/mL)
[27]
  MIC: 1.3 µM (≈ 4 µg/mL)
[28]
  MIC: 0.652 µM (≈ 2 µg/mL)

## CC(C)C[C@H](NC(=O)[C@H](Cc1c[nH]c2ccccc12)NC(=O)[C@H](CCCN=C(N)N)NC(=O)[C@H](Cc1c[nH]c2ccccc12)NC(=O)[C@H](Cc1c[nH]c2ccccc12)NC(=O)[C@H](Cc1c[nH]c2ccccc12)NC(=O)[C@H](CCCN=C(N)N)NC(=O)[C@H](Cc1c[nH]c2ccccc12)NC(=O)[C@@H](N)CC(C)C)C(N)=O [LWRWWWRWL]
[15]
  MIC: 128 µM (≈ 190 µg/mL)
[29]
  MIC: 4 µM (≈ 5.95 µg/mL)
[30]
  MIC: 16 µM (≈ 23.8 µg/mL)
[31]
  MIC: 4 µM (≈ 5.95 µg/mL)
[32]
  MIC: ≥ 32 µM
[33]
  MIC: 8 µM (≈ 11.9 µg/mL)
[34]
  MIC: 32 µM (≈ 47.6 µg/mL)
[35]
  MIC: ≥ 32 µM
[36]
  MIC: 4 µM (≈ 5.95 µg/mL)
[37]
  MIC: ≥ 64 µM
[38]
  MIC: 4 µM (≈ 5.95 µg/mL)
[39]
  MIC: 16 µM (≈ 23.8 µg/mL)
[40]
  MIC: 8 µM (≈ 11.9 µg/mL)
[41]
  MIC: 16 µM (≈ 23.8 µg/mL)
[22]
  MIC: 4 µM (≈ 5.95 µg/mL)

## CC(C)C[C@H](NC(=O)[C@H](CC(N)=O)NC(=O)[C@@H]1CCCN1C(=O)[C@@H](N)CCCN=C(N)N)C(=O)N[C@@H](Cc1cnc[nH]1)C(=O)N1CCC[C@H]1C(=O)N[C@@H](CO)C(=O)O [RPNLHPS]
[18]
  MIC: 3660 µM (≈ 3000 µg/mL)
[42]
  MIC: ≥ 3660 µM
[14]
  MIC: 3660 µM (≈ 3000 µg/mL)

## CSCC[C@H](NC(=O)[C@H](Cc1cnc[nH]1)NC(=O)[C@H](CCCCN)NC(=O)CNC(=O)[C@H](CC(N)=O)NC(=O)[C@H](CCCN=C(N)N)NC(=O)[C@@H](NC(=O)[C@H](Cc1cnc[nH]1)NC(=O)[C@H](CS)NC(=O)[C@H](C)NC(=O)CNC(=O)[C@H](Cc1cnc[nH]1)NC(=O)[C@@H](NC(=O)[C@H](C)NC(=O)CNC(=O)[C@H](CCC(=O)O)NC(=O)[C@@H](N)Cc1c[nH]c2ccccc12)C(C)C)C(C)C)C(=O)N[C@@H](CS)C(=O)O [WEGAVHGACHVRNGKHMC]
[43]
  MIC: 20 µM (≈ 39.8 µg/mL)

## CC[C@H](C)[C@H](NC(=O)[C@H](Cc1ccccc1)NC(=O)[C@H](CO)NC(=O)[C@H](CCCCN)NC(=O)[C@H](Cc1ccccc1)NC(=O)[C@@H](NC(=O)[C@H](CCCCN)NC(=O)[C@@H](N)Cc1c[nH]c2ccccc12)C(C)C)C(=O)N[C@@H](CCCCN)C(=O)N[C@@H](CCCCN)C(=O)N[C@@H](C)C(=O)N[C@@H](CO)C(=O)N[C@@H](CO)C(=O)N[C@@H](Cc1ccccc1)C(=O)N[C@@H](C)C(=O)N[C@@H](CCC(N)=O)C(=O)N[C@@H](CO)C(=O)N[C@H](C(=O)N[C@@H](CC(C)C)C(=O)N[C@@H](CC(=O)O)C(=O)O)C(C)C [WKVFKSFIKKASSFAQSVLD]
[23]
  MIC: 27.6 µM (≈ 64 µg/mL)
[24]
  MIC: 27.6 µM (≈ 64 µg/mL)
[25]
  MIC: 27.6 µM (≈ 64 µg/mL)
[7]
  MIC: 4.75 µM (≈ 11 µg/mL)
[27]
  MIC: 27.6 µM (≈ 64 µg/mL)
[28]
  MIC: 27.6 µM (≈ 64 µg/mL)
[44]
  MIC: 27.6 µM (≈ 64 µg/mL)
